Assay results reported in patent publication US20250346585A1 (Alexion Pharmaceuticals, Inc., priority 2022, published 2025).

molecular target: Human complement C1s enzyme (Homo sapiens (Human), UniProt P09871); experiment: Human C1s enzyme assay; assay type: biochemical; conditions: Human C1s enzyme assay of Example 3; read-out: IC50 (Stars)
Method in brief: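 Purified serum-derived human C1s (1.16 nM final) preincubated 5 min at room temperature with compound in 50 mM Tris, 1 M NaCl, pH 7.5. Z-L-Lys-SBzl thioester substrate and DTNB added (100 μM each, final); A405 read every 30 s for 30 min. IC50 from nonlinear regression of reaction rates against compound concentration.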

Sequence of Human complement C1s enzyme (P09871 438-688 limits assumed): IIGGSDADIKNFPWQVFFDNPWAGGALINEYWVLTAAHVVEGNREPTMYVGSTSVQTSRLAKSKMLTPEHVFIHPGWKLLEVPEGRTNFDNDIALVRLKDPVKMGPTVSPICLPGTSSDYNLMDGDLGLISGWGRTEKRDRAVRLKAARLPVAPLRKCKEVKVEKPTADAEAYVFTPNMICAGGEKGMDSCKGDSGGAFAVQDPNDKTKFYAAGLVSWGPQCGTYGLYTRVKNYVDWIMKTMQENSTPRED
Sequence of Human complement C1s enzyme (P09871 16-437 partner limits assumed): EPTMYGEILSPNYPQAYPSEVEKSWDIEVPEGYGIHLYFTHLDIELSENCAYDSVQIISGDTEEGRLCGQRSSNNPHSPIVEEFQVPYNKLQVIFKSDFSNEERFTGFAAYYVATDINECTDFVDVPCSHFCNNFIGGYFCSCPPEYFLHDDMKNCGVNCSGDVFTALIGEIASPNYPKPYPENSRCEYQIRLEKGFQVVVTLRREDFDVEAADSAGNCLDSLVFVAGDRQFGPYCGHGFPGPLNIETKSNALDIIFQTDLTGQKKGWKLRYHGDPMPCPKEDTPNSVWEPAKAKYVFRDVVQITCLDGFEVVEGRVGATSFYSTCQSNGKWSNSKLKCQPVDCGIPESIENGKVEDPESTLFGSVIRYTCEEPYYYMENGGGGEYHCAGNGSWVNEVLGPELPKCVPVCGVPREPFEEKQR

IC50	SMILES
< 100 nM	C[C@@H]1C[C@@H](C(=O)N[C@H](C)c2cc(C(=N)N)cs2)N(C(=O)CNC(=O)c2ccc(Oc3ccc(F)cc3)cc2)C1 [Compound 63, (2S,4R)—N—((R)-1-(4-carbamimidoylthiophen-2-yl)ethyl)-1-((4-(4-fluorophenoxy)benzoyl)glycyl)-4-methylpyrrolidine-2-carboxamide]
< 100 nM	C[C@@H](NC(=O)[C@@H]1C[C@@H](S(C)(=O)=O)CN1C(=O)CNC(=O)c1ccc(Oc2ccc(F)cc2)cc1)c1cc(C(=N)N)cs1 [Compound 54, (2S,4R)—N—((R)-1-(4-carbamimidoylthiophen-2-yl)ethyl)-1-((4-(4-fluorophenoxy)benzoyl)glycyl)-4-(methylsulfonyl)pyrrolidine-2-carboxamide]
> 1000 nM	O=C(NCC(=O)N1CC2(C[C@H]1C(=O)NCc1cc(NC3=NCCCN3)cs1)OCCO2)c1ccc(Oc2ccc(F)cc2)cc1 [Compound 142, (S)-7-((4-(4-fluorophenoxy)benzoyl)glycyl)-N-((4-((1,4,5,6-tetrahydropyrimidin-2-yl)amino)thiophen-2-yl)methyl)-1,4-dioxa-7-azaspiro[4.4]nonane-8-carboxamide]
< 100 nM	C[C@@H](NC(=O)[C@@H]1CC2(CN1C(=O)CNC(=O)c1ccc(-c3ccc(F)cc3)cn1)OCCO2)c1cc(C(=N)N)cs1 [Compound 163, (S)—N—((R)-1-(4-carbamimidoylthiophen-2-yl)ethyl)-7-((5-(4-fluorophenyl)picolinoyl)glycyl)-1,4-dioxa-7-azaspiro[4.4]nonane-8-carboxamide]
< 100 nM	COC(=O)/N=C(/N)c1csc([C@@H](C)NC(=O)[C@@H]2CC3(CN2C(=O)CNC(=O)c2ccc4c(c2)-c2ccccc2C4(F)F)OCCO3)c1 [Compound 148, methyl ((E)-amino(5-((R)-1-((S)-7-((9,9-difluoro-9H-fluorene-3-carbonyl)glycyl)-1,4-dioxa-7-azaspiro[4.4]nonane-8-carboxamido)ethyl)thiophen-3-yl)methylene)carbamate]
> 1000 nM	Nc1nc(-c2csc(CNC(=O)[C@@H]3CC4(CN3C(=O)CNC(=O)c3ccc(Oc5ccc(F)cc5)cc3)OCCO4)c2)cs1 [Compound 186, (S)—N-((4-(2-aminothiazol-4-yl)thiophen-2-yl)methyl)-7-((4-(4-fluorophenoxy)benzoyl)glycyl)-1,4-dioxa-7-azaspiro[4.4]nonane-8-carboxamide]
< 100 nM	C[C@@H](NC(=O)[C@@H]1C[C@@H](OC(F)F)CN1C(=O)CNC(=O)c1ccc(Oc2ccc(C(F)(F)F)cc2)cc1)c1cc(C(=N)N)cs1 [Compound 5, (2S,4R)—N—((R)-1-(4-carbamimidoylthiophen-2-yl)ethyl)-4-(difluoromethoxy)-1-((4-(4-(trifluoromethyl)phenoxy)benzoyl)glycyl)pyrrolidine-2-carboxamide]
< 100 nM	N=C(N)c1csc(CNC(=O)[C@@H]2CC3(CN2C(=O)CNC(=O)c2ccc(-c4ccccc4)cn2)OCCO3)c1 [Compound 48, (S)—N-((4-carbamimidoylthiophen-2-yl)methyl)-7-((5-phenylpicolinoyl)glycyl)-1,4-dioxa-7-azaspiro[4.4]nonane-8-carboxamide]
< 100 nM	COC[C@@]1(F)C[C@@H](C(=O)NCc2cc(C(=N)N)cs2)N(C(=O)CNC(=O)c2ccc3c(c2)-c2ccccc2C3(F)F)C1 [Compound 58, (2S,4R)—N-((4-carbamimidoylthiophen-2-yl)methyl)-1-((9,9-difluoro-9H-fluorene-3-carbonyl)glycyl)-4-fluoro-4-(methoxymethyl)pyrrolidine-2-carboxamide]
< 100 nM	COC[C@H]1C[C@@H](C(=O)N[C@H](C)c2cc(C(=N)N)cs2)N(C(=O)CNC(=O)c2ccc3c(c2)-c2ccccc2C3(F)F)C1 (relative stereo) [Compound 117, (2S,4S*)—N—((R)-1-(4-carbamimidoylthiophen-2-yl)ethyl)-1-((9,9-difluoro-9H-fluorene-3-carbonyl)glycyl)-4-(methoxymethyl)pyrrolidine-2-carboxamide]

same assay, conditions: Human complement C1s enzyme 1.16 nM, substrate Z-L-Lys-SBzl 100 μM, assay of Example 3; read-out: IC50 (Stars)

IC50	SMILES
< 100 nM	C[C@@H](NC(=O)[C@@H]1C[C@@H](OC(F)F)CN1C(=O)CNC(=O)c1ccc2c(c1)-c1ccccc1S2(=O)=O)c1cc(C(=N)N)cs1 [Compound 337, (2S,4R)—N—((R)-1-(4-carbamimidoylthiophen-2-yl)ethyl)-4-(difluoromethoxy)-1-((5,5-dioxidodibenzo[b,d]thiophene-2-carbonyl)glycyl) pyrrolidine-2-carboxamide]
< 100 nM	C[C@@H](NC(=O)[C@@H]1C[C@@H](OC(F)F)CN1C(=O)CNC(=O)c1cccc(-c2ccc(F)cc2)c1)c1cc(C(=N)N)cs1 [Compound 330, (2S,4R)—N—((R)-1-(4-carbamimidoylthiophen-2-yl)ethyl)-4-(difluoromethoxy)-1-((4′-fluoro-[1,1′-biphenyl]-3-carbonyl)glycyl)pyrrolidine-2-carboxamide]
< 100 nM	C[C@@H](NC(=O)[C@@H]1CC2(CN1C(=O)CNC(=O)c1ccc3c(c1)-c1ccccc1C3OC(F)F)OCCO2)c1cc(C(=N)N)cs1 (stereo partly shown) [Compound 204]
< 100 nM	COC[C@@]1(F)C[C@@H](C(=O)N[C@H](C)c2cc(C(=N)N)cs2)N(C(=O)CNC(=O)c2ccc3c(c2)C(C)c2ccccc2-3)C1 (stereo partly drawn) [Compound 363, (2S,4R)—N—((R)-1-(4-carbamimidoylthiophen-2-yl)ethyl)-4-fluoro-4-(methoxymethyl)-1-((9-methyl-9H-fluorene-2-carbonyl)glycyl)pyrrolidine-2-carboxamide]
< 100 nM	C[C@@H](NC(=O)[C@@H]1C[C@](F)(CF)CN1C(=O)CNC(=O)c1ccc2c(c1)C(C)(C)c1ccccc1-2)c1cc(C(=N)N)cs1 [Compound 368, (2S,4R)—N—((R)-1-(4-carbamimidoylthiophen-2-yl)ethyl)-1-((9,9-dimethyl-9H-fluorene-2-carbonyl)glycyl)-4-fluoro-4-(fluoromethyl)pyrrolidine-2-carboxamide]
< 100 nM	COC[C@@]1(F)C[C@@H](C(=O)N[C@H](C)c2cc(C(=N)N)cs2)N(C(=O)CNC(=O)c2ccc3c(c2)sc2ccccc23)C1 [Compound 343, (2S,4R)—N—((R)-1-(4-carbamimidoylthiophen-2-yl)ethyl)-1-((dibenzo[b,d]thiophene-3-carbonyl)glycyl)-4-fluoro-4-(methoxymethyl)pyrrolidine-2-carboxamide]
> 1000 nM	C=CC(=O)Nc1csc(CNC(=O)[C@@H]2CC3(CN2C(=O)CNC(=O)c2ccc(Oc4ccc(F)cc4)cc2)OCCO3)c1 [Compound 309, (S)-N-((4-acrylamidothiophen-2-yl)methyl)-7-((4-(4-fluorophenoxy)benzoyl)glycyl)-1,4-dioxa-7-azaspiro[4.4]nonane-8-carboxamide]
< 100 nM	CS(=O)(=O)c1ccc(-c2ccc(C(=O)NCC(=O)N3CC4(C[C@H]3C(=O)NCc3cc(C(=N)N)cs3)OCCO4)cc2)c(F)c1 [Compound 215, (S)—N-((4-carbamimidoylthiophen-2-yl)methyl)-7-((2′-fluoro-4′-(methylsulfonyl)-[1,1′-biphenyl]-4-carbonyl)glycyl)-1,4-dioxa-7-azaspiro[4.4]nonane-8-carboxamide]
< 100 nM	N=C(N)c1csc(CNC(=O)[C@@H]2CC3(CN2C(=O)CN2Cc4ccc(-c5ccc(F)cc5F)cc4C2)OCCO3)c1 [Compound 287, (S)—N-((4-carbamimidoylthiophen-2-yl)methyl)-7-(2-(5-(2,4-difluorophenyl)isoindolin-2-yl)acetyl)-1,4-dioxa-7-azaspiro[4.4]nonane-8-carboxamide]
< 100 nM	C[C@@H](NC(=O)[C@@H]1CC2(CN1C(=O)CNC(=O)c1ccc3c(c1)Oc1ccccc1N3)OCCO2)c1cc(C(=N)N)cs1 [Compound 294, N-(2-((S)-8-(((R)-1-(4-carbamimidoylthiophen-2-yl)ethyl)carbamoyl)-1,4-dioxa-7-azaspiro[4.4]nonan-7-yl)-2-oxoethyl)-10H-phenoxazine-3-carboxamide]
< 100 nM	C[C@@H](NC(=O)[C@@H]1C[C@@H](S(C)(=O)=O)CN1C(=O)CNC(=O)c1ccc2oc3ccccc3c2c1)c1cc(C(=N)N)cs1 [Compound 220, (2S,4R)—N—((R)-1-(4-carbamimidoylthiophen-2-yl)ethyl)-1-((dibenzo[b,d]furan-2-carbonyl)glycyl)-4-(methylsulfonyl)pyrrolidine-2-carboxamide]
< 100 nM	C[C@@H](NC(=O)[C@@H]1CC2(CN1C(=O)CNC(=O)c1ccc3c(c1)[nH]c1ccccc13)OCCO2)c1cc(C(=N)N)cs1 [Compound 374, (S)-7-((9H-carbazole-2-carbonyl)glycyl)-N—((R)-1-(4-carbamimidoylthiophen-2-yl)ethyl)-1,4-dioxa-7-azaspiro[4.4]nonane-8-carboxamide]

same assay, conditions: Human complement C1s enzyme 1.16 nM, substrate Z-L-Lys-SBzl; assay of Example 3; read-out: IC50 (Stars)

IC50	SMILES
< 100 nM	CC1c2ccccc2-c2cc(C(=O)NCC(=O)N3C[C@H](OC(F)F)C[C@H]3C(=O)N[C@H](C)c3cc(C(=N)N)cs3)ccc21 (stereo partly drawn) [Compound 421, (2S,4R)-N-((R)-1-(4-carbamimidoylthiophen-2-yl)ethyl)-4-(difluoromethoxy)-1-((9-methyl-9H-fluorene-3-carbonyl)glycyl) pyrrolidine-2-carboxamide]
< 100 nM	CC1c2ccccc2-c2cc(C(=O)NCC(=O)N3C[C@@](F)(CF)C[C@H]3C(=O)N[C@H](C)c3cc(C(=N)N)cs3)ccc21 (stereo partly drawn) [Compound 417, (2S,4R)—N—((R)-1-(4-carbamimidoylthiophen-2-yl)ethyl)-4-fluoro-4-(fluoromethyl)-1-((9-methyl-9H-fluorene-3-carbonyl)glycyl)pyrrolidine-2-carboxamide]

SMILES	IC50
C[C@@H](NC(=O)[C@@H]1C[C@]2(COCCCCN)C[C@@H]2N1C(=O)CNC(=O)c1ccc2c(c1)-c1ccccc1C2(F)F)c1cc(C(=N)N)cs1 [Compound 414, (1S,3S,5R)-5-((4-aminobutoxy)methyl)-N—((R)-1-(4-carbamimidoylthiophen-2-yl)ethyl)-2-((9,9-difluoro-9H-fluorene-3-carbonyl)glycyl)-2-azabicyclo[3.1.0]hexane-3-carboxamide]	< 100 nM
